This is an account of results in patent publication US10273221B2, “Microbiocidal heterobicyclic derivatives” (Syngenta Participations AG, priority 2015, dated 2019).

Molecules are shown by their SMILES. A value given as a limit tells only on which side of the number the result lay.

The test system of one data set is Fusarium culmorum. Nature of the data set: microbe, parasite or virus in culture. Format: cell-based. The following applies: 72 h, read-out: disease control.
Data set [1] relates to Botryotinia fuckeliana (Botrytis cinerea). The experiment in a line: Botryotinia fuckeliana (Botrytis cinerea) / liquid culture (gray mould). The following applies: growth inhibition determined photometrically 3-4 days after application, vs untreated control, read-out: disease control. Format: cell-based.
Data set [2] relates to Glomerella lagenarium (Colletotrichum lagenarium). The experiment in a line: Glomerella lagenarium (Colletotrichum lagenarium) / liquid culture (anthracnose). Format: cell-based. The conditions noted are these: Colletotrichum orbiculare, growth inhibition measured photometrically 3-4 days after application, vs untreated control, read-out: disease control.
The subject of data set [3] is Monographella nivalis (Microdochium nivale). Nature of the data set: Monographella nivalis (Microdochium nivale) / liquid culture (foot rot cereals). The format is cell-based. The following applies: 96 h, growth inhibition determined photometrically 4-5 days after application, vs untreated control, read-out: disease control.
The subject of the next data set is Sclerotinia sclerotiorum. Nature of the data set: Sclerotinia sclerotiorum / liquid culture (cottony rot). The conditions noted are these: 72 h, read-out: control of Sclerotinia sclerotiorum.
Data set [4] concerns Magnaporthe grisea (Pyricularia oryzae). The experiment in a line: microbe, parasite or virus in culture. Format: cell-based. The following applies: 72 h, read-out: control of Magnaporthe grisea.
The subject of another data set is Gaeumannomyces graminis. Nature of the data set: Gaeumannomyces graminis / liquid culture (take-all of cereals). Format: cell-based. The conditions noted are these: growth inhibition determined photometrically 4-5 days after application, vs untreated control, read-out: disease control.

Procedure for Sclerotinia sclerotiorum: Sclerotinia sclerotiorum/Liquid Culture (Cottony Rot)
Mycelia fragments of a newly grown liquid culture of the fungus are directly mixed into nutrient broth (Vogels broth). After placing a (DMSO) solution of test compound into a microtiter plate (96-well format) the nutrient broth containing the fungal material is added. The test plates are incubated at 24° C. and the inhibition of growth is determined photometrically 3-4 days after application.

With `CC1(C)N=C(n2cnc3ccccc32)c2cccc(F)c2C1(C)C` [E-2], the inhibition of growth at 200 ppm (with Fusarium culmorum; in data set [1]; in data set [2]; in data set [3]) was at least 80% each time.

One may read the melting point as the temperature of the solid-liquid transition. With `Cc1cccc2c1ncn2C1=NC(C)(C)C(C)(C)c2c1ccc(Cl)c2F` [E-45], the melting point fell in the range of 147 to 151 °C. In the data set with Sclerotinia sclerotiorum, the inhibition of growth at 20 ppm was at least 80%. Besides, the inhibition of growth at 200 ppm in the data set with Fusarium culmorum was at least 80%. Further, the inhibition of growth at 200 ppm in data set [1] is at least 80%. Moreover, in data set [4], the inhibition of growth at 20 ppm was at least 80%. Further, the inhibition of growth at 200 ppm in data set [2] is at least 80%. In data set [3], the inhibition of growth at 200 ppm was at least 80%.

Turning to `Cc1ccc2c(ncn2C2=NC(C)(C)C(F)(F)c3ccccc32)c1Cl` [E-31], the inhibition of growth at 20 ppm (in the data set with Sclerotinia sclerotiorum; in data set [4]) was at least 80% in each case. Besides, the inhibition of growth at 200 ppm (in the data set on Fusarium culmorum; in data set [1]; in data set [2]; in data set [3]; in the data set with Gaeumannomyces graminis) was at least 80% each time.

The compound `CC1(C)N=C(n2cnc3c4c(ccc32)CCC4)c2cccc(F)c2C1(C)C` [E-51] showed a melting point of 177 to 178 °C. Moreover, the inhibition of growth at 200 ppm with Fusarium culmorum was at least 80%. The inhibition of growth at 200 ppm in data set [1] is at least 80%. Also, the inhibition of growth at 20 ppm in data set [4] was at least 80%. The inhibition of growth at 200 ppm in data set [3] was at least 80%. In addition, in the data set on Gaeumannomyces graminis, the inhibition of growth at 200 ppm is at least 80%.

Take `Cc1cccc2c1ncn2C1=NC2(CC2)Cc2ccccc21` [E-59]: the inhibition of growth at 200 ppm (in the data set on Fusarium culmorum; in data set [1]; in data set [2]; in data set [3]; in the data set on Gaeumannomyces graminis) was at least 80% each time. In addition, the inhibition of growth at 20 ppm in data set [4] was at least 80%.

As for `CC1(C)N=C(n2cnc3c(Cl)cccc32)c2ccccc2C1=O` [E-29], in data set [1], the inhibition of growth at 200 ppm is at least 80%.

The compound `Cc1cccc2c1ncn2C1=NC(C)(C)C(C)(C)c2c(F)cccc21` [Example 1] yielded a melting point of 118 to 120 °C.

Regarding `CC1(C)N=C(n2cnc3c(C4CC4)cccc32)c2cccc(F)c2C1(C)C` [E-8], the inhibition of growth at 200 ppm (in data set [1]; in data set [2]; in data set [3]; in the data set with Gaeumannomyces graminis) was at least 80% in each case. For the same compound, in data set [4], the inhibition of growth at 20 ppm is at least 80%.

For the compound `CC1(C)N=C(n2cnc3ccccc32)c2ccccc2C12CC2` [E-3, 1′-(benzimidazol-1-yl)-3′,3′-dimethyl-spiro(cyclopropane-1,4′-isoquinoline)], the inhibition of growth at 200 ppm (in data set [1]; in data set [2]; in the data set on Gaeumannomyces graminis) was at least 80% each time.

For `Cc1ccc2c(ncn2C2=NC(C)(C)C(F)(F)c3cc(Cl)ccc32)c1C` [E-49], the inhibition of growth at 200 ppm (in the data set with Fusarium culmorum; in data set [1]; in data set [2]; in data set [3]; in the data set with Gaeumannomyces graminis) was at least 80% each time. For the same compound, in data set [4], the inhibition of growth at 20 ppm was at least 80%.

`Cc1cccc2c1ncn2C1=NC(C)(C)C(C)(C)c2c1ccc(F)c2F` [E-46] registered a melting point of 122 to 125 °C. Besides, the inhibition of growth at 20 ppm in the data set with Sclerotinia sclerotiorum is at least 80%. Moreover, the inhibition of growth at 200 ppm in the data set on Fusarium culmorum was at least 80%. Moreover, the inhibition of growth at 200 ppm in data set [1] is at least 80%. The inhibition of growth at 20 ppm in data set [4] was at least 80%. In addition, in data set [2], the inhibition of growth at 200 ppm was at least 80%. Moreover, the inhibition of growth at 200 ppm in data set [3] was at least 80%.

`Cc1c(Cl)ccc2c1ncn2C1=NC(C)(C)C(C)(C)c2c(F)cccc21` [E-42] yielded a melting point of 102 to 103 °C. Besides, the inhibition of growth at 20 ppm in the data set with Sclerotinia sclerotiorum was at least 80%. Further, the inhibition of growth at 200 ppm in the data set with Fusarium culmorum is at least 80%. For the same compound, the inhibition of growth at 200 ppm in data set [1] was at least 80%. For the same compound, the inhibition of growth at 20 ppm in data set [4] was at least 80%. Moreover, the inhibition of growth at 200 ppm in data set [2] was at least 80%. Moreover, the inhibition of growth at 200 ppm in data set [3] is at least 80%.

In the case of `Cc1cccc2c1ncn2C1=NC2(CC2)C2(CC2)c2ccccc21` [E-61], the inhibition of growth at 20 ppm (in the data set on Sclerotinia sclerotiorum; in data set [4]) was at least 80% in each case. For the same compound, the inhibition of growth at 200 ppm (in the data set with Fusarium culmorum; in data set [1]; in data set [2]; in data set [3]; in the data set on Gaeumannomyces graminis) was at least 80% each time.

Consider `Cc1cccc2c1ncn2C1=NCC(C)(C)c2ccccc21` [E-44], for which the inhibition of growth at 20 ppm (with Sclerotinia sclerotiorum; in data set [4]) was at least 80% each time. Also, the inhibition of growth at 200 ppm in data set [1], in data set [2] and in data set [3] was at least 80% each time.

`CC1(C)N=C(n2cnc3cc(Cl)c(Cl)cc32)c2cccc(F)c2C1(C)C` [E-39] registered a melting point of 126 to 127 °C. Also, the inhibition of growth at 20 ppm with Sclerotinia sclerotiorum was at least 80%. Also, the inhibition of growth at 200 ppm in data set [1] is at least 80%. The inhibition of growth at 20 ppm in data set [4] is at least 80%. In data set [2], the inhibition of growth at 200 ppm was at least 80%. In addition, the inhibition of growth at 200 ppm in data set [3] is at least 80%.

For `Cc1cccc2c1ncn2C1=NC2(CCC2)Cc2ccccc21` [E-43], the melting point fell in the range of 132 to 133 °C. Besides, in the data set with Sclerotinia sclerotiorum, the inhibition of growth at 20 ppm was at least 80%. The inhibition of growth at 200 ppm in data set [1] was at least 80%. The inhibition of growth at 20 ppm in data set [4] was at least 80%. In addition, the inhibition of growth at 200 ppm in data set [2] is at least 80%. In data set [3], the inhibition of growth at 200 ppm was at least 80%.

Compound `COC(=O)c1cccc2c1ncn2C1=NC(C)(C)C(C)(C)c2c(F)cccc21` [E-24] gave a melting point of 178 to 179 °C. The inhibition of growth at 20 ppm in data set [4] is at least 80%.

`Cc1cccc2c1ncn2C1=NC(C)(C)C(F)(F)c2ccccc21`: the melting point was in the range of 142 to 149 °C.

Turning to `Cc1cccc2c1ncn2C1=NC(C)(C)Cc2c(Cl)cccc21` [E-40], the inhibition of growth at 20 ppm (in the data set on Sclerotinia sclerotiorum; in data set [4]) was at least 80% each time. The inhibition of growth at 200 ppm in data set [1], in data set [2] and in data set [3] was at least 80% each time.

`Cc1cccc2c1ncn2C1=NC(C)(C)Cc2c(Br)cccc21` [E-38]: the melting point fell in the range of 52 to 54 °C. Also, the inhibition of growth at 20 ppm in the data set with Sclerotinia sclerotiorum was at least 80%. For the same compound, the inhibition of growth at 200 ppm in data set [1] was at least 80%. The inhibition of growth at 20 ppm in data set [4] was at least 80%. In addition, the inhibition of growth at 200 ppm in data set [2] was at least 80%. Besides, the inhibition of growth at 200 ppm in data set [3] is at least 80%.

`Cc1cccc2c1ncn2C1=NCC2(CCCCC2)c2ccccc21` [E-52]: the inhibition of growth at 200 ppm in data set [1] was at least 80%. Moreover, the inhibition of growth at 20 ppm in data set [4] is at least 80%.

Turning to `Cc1cccc2c1ncn2C1=NC(C)(C)C(F)(F)c2cc(Cl)ccc21` [E-47], the inhibition of growth at 200 ppm (in the data set on Fusarium culmorum; in data set [1]; in data set [3]; in the data set on Gaeumannomyces graminis) was at least 80% in each case. In addition, in data set [4], the inhibition of growth at 20 ppm was at least 80%.

For the compound `Cc1c(F)ccc2c1ncn2C1=NC(C)(C)C(F)(F)c2cc(Cl)ccc21` [E-48], the inhibition of growth at 200 ppm (in the data set with Fusarium culmorum; in data set [1]; in data set [3]; in the data set on Gaeumannomyces graminis) was at least 80% throughout. The inhibition of growth at 20 ppm in data set [4] is at least 80%.
